Series [1] has as its system brain protein carbonyl contents. The series is described as follows: Assay of brain protein carbonyls. The series is classed as in vivo, mouse. Particulars: 2 week diabetic mice, NAC 1 week. The protocol:
The extent of protein glycation was determined by measuring total protein carbonyl contents. Briefly, the brain homogenate was incubated with 10 mM of 2, 4-dinitro-phenylhydrazine (DNPH) in 2M hydrochloride acid (1:2 volume) for 1 h followed by precipitation with trichloroacetic acid (final concentration 10%). Following centrifugation, the precipitant was washed 3 times with ethanol-ethyl acetate (1:1) to remove free DNPH. The pellets were redissolved in 0.6 ml of 6 M guanidine hydrochloride solution containing 20 mM potassium phosphate (pH=2.3 adjusted with trifluoroacetic acid) at 37° C., and the insoluble materials were removed by centrifugation for 3 min at 11000 g. The absorbance was monitored at 366 nm, and protein carbonyl contents quantified using the extinction coefficient of 22000 M^−1 cm^−1.

The test system of series [2] is human brain microvascular endothelial cell. The series is described as follows: Endothelial barrier permeability by transendothelial electrical resistance. It is filed as cell-based. The note with it: MG with NAC. The method, then: Moreover, treatment with 100 μM MG in rat thoracic aortic rings for 24 h decreases acetylcholine-induced vascular relaxation via a reduction in p-eNOS (Ser1177) and p-AMPKα (Thr172). MG can reduce endothelial angiogenesis through RAGE-mediated, ONOO(^−)-dependent and autophagy-induced VEGFR2 degradation. […] This is exacerbated by GSH synthesis inhibition and prevented by NAC. The enhanced MG concentration in diabetic patients can also directly contribute to the platelet dysfunction associated with diabetes. Platelet dysfunction is characterized by hyperaggregability and reduced thrombus stability via potentiating thrombin-induced platelet aggregation and dense granule release, but inhibiting platelet spreading on fibronectin and collagen. Given that endothelial dysfunction and enhanced platelet activation could promote stroke, these studies indicate that MG can contribute to ischemic brain injury.

Series [3] relates to STZ-treated diabetic mice, I/R brain injury. The series is described as follows: Middle cerebral artery occlusion-reperfusion (MCAoR) brain infarct area in diabetic mice. The series is classed as in vivo, mouse. The note with it: 2 mM NAC in drinking water 1 or 3 weeks before MCAoR, 45 min ischemia, 24 h reperfusion. The protocol: Turning now to FIGS. 1A-1C, a brief description concerning the various components of the present invention will now be briefly discussed. As shown, ischemia/reperfusion (I/R) injury in control and diabetic brain was determined using the middle cerebral artery occlusion-reperfusion (MCAoR) model of Koizumi. MCA occlusion was for 45 min and reperfusion for 24 h. Diabetes model were: mice injected with streptozotocin (STZ) or Akita mice lacking the Insulin-2 gene which spontaneously developed diabetes in 4 wks. Results are mean±SE. NT=no treatment; Veh=citrate buffer; Veh+STZ=4 week post STZ. Ak—Akita. The post I/R infarct area is represented by the unstained (white) regions of left brain sections.
Turning to FIGS. 12A-12C, I/R injury in control and diabetic brain was determined using the middle cerebral artery occlusion-reperfusion (MCAoR) model of Koizumi. MCA occlusion was for 45 min and reperfusion for 24 h. Diabetes was induced with streptozotocin (STZ) and stroke was induced in 4-week diabetic mice. NAC (2 mM) was given in drinking water for 3 weeks. Results are mean±SE. Veh=citrate buffer; STZ=4 week post STZ. The post I/R infarct area is represented by the unstained (white) regions of left brain sections after staining with TTC.
Four-week-old male C57BL/6J mice, weighing 18-20 g, were purchased from Jackson Laboratory. […]

The subject of series [4] is platelet-leukocyte aggregates (PLAs). The series is described as follows: Platelet-leukocyte aggregate formation in STZ diabetic mice. The series is classed as in vivo, mouse. Particulars: 5 and 19 week diabetic mice; NAC 2 mM for 2 weeks. The method, then: Turning to FIGS. 25A-25D, the percent of circulating leukocytes forming aggregates with platelets at 5 weeks of diabetes is shown (FIG. 25A). Aggregate formation between platelets and leukocyte subpopulations include: lymphocytes (FIG. 25B), neutrophils (FIG. 25C) and monocytes (FIG. 25D). Non-diabetic (vehicle-treated (Veh)), diabetic (STZ) and diabetic mice treated with NAC (2 mM for 2 weeks) were assessed. Turning to FIGS. 26A-26D, the percent of circulating leukocytes forming aggregates with platelets at 19 weeks of diabetes is shown (FIG. 26A). Aggregate formation between platelets and leukocyte subpopulations include: lymphocytes (FIG. 26B), neutrophils (FIG. 26C) and monocytes (FIG. 26D). Non-diabetic (vehicle-treated (Veh)), diabetic (STZ) and diabetic mice treated with NAC (2 mM for 2 weeks) were assessed.

The conditions of series [5]: 60 mg/kg/d over 8-75 months in young children; cited from earlier work.
The test system of series [6] is human brain microvascular endothelial cells (IHECs). The series is described as follows: MG-occludin adduct formation in IHECs (Western blot, immunoprecipitation). It is filed as cell-based. The note with it: IHECs in 5 mM glucose exposed to MG for 4 h with 2 mM NAC.

Entries after “also recorded” stand apart in the source; their conditions may differ.

For `CC(=O)N[C@@H](CS)C(=O)O` [NAC, N-acetylcysteine], in series [1], the “brain protein carbonyl contents” value is on record as “highly effective in attenuating; also recorded: decreased significantly; also recorded: significantly attenuated”. In series [2], the “MG-induced endothelial barrier permeability” value is recorded as “prevented”. Moreover, in series [3], the percent infarct area entry is recorded as “significantly attenuated; also recorded: protects the diabetic brain against injury induced by I/R”. The “platelet-leukocyte aggregate (PLA) formation” value in series [4] is “effectively normalized”. Further, the tolerability entry in series [5] is “well-tolerated”. Moreover, the “occludin glycation (MG-occludin adduct)” value in series [6] is given as “prevent the formation of MG-occludin adducts; also recorded: prevented”.

The values above are taken from US20180036270A1, “A METHOD OF PROTECTING AGAINST CARBONYL STRESS INDUCED ISCHEMIA-REPERFUSION INJURY IN THE DIABETIC BRAIN VIA ADMINISTRATION OF N-ACETYLCYSTEINE” (Board of Supervisors of Louisiana State University and …, priority 2015, published 2018).
